These are literature values, as cited in US20050121026A1, “Method for administration of tiotropium” (priority 2003, published 2005).

Each structure is given as a SMILES string.

For this data set the following is noted: bronchodilator, background statement.

Regarding `C[N+]1(C)[C@@H]2C[C@@H](OC(=O)C(O)(c3cccs3)c3cccs3)C[C@H]1[C@@H]1O[C@@H]12` [tiotropium bromide], the “Duration of action (may be active for up to)” value was “up to 24 hours”.
